# Tested on: endogenous cellular STAT1 (phosphorylated at Tyr701) in NCI-H1373 cells
# Assay: Phospho-STAT1 (Tyr701) LANCE Ultra TR-FRET Detection Assay
# Type: cell-based
# Conditions: Homo sapiens, 48 hours, phospho-STAT1 (Tyr701) induction, read-out: NH1373 pSTAT1 EC50
row,SMILES,EC50
1,"O=c1[nH]ncc(N2CCCN2CCCn2ccc3cc(-c4ncc(C(F)(F)F)cn4)c(F)cc3c2=O)c1C(F)(F)F [Example 154, 7-fluoro-2-[3-[2-[6-oxo-5-(trifluoromethyl)-1H-pyridazin-4-yl]pyrazolidin-1-yl]propyl]-6-[5-(trifluoromethyl)pyrimidin-2-yl]isoquinolin-1-one]",115 nM

# Same assay, conditions: Homo sapiens, NCI-H1373, 48 h, phospho-STAT1 (Tyr701) induction, read-out: NH1373 pSTAT1 EC50
row,SMILES,EC50
1,"O=c1[nH]ncc(N2CC(F)(F)C[C@H]2CCCn2ccc3cc(-c4ncc(C(F)(F)F)cn4)c(F)cc3c2=O)c1C(F)(F)F [Example 139, 2-[3-[(2R)-4,4-difluoro-1-[6-oxo-5-(trifluoromethyl)-1H-pyridazin-4-yl]pyrrolidin-2-yl]propyl]-7-fluoro-6-[5-(trifluoromethyl)pyrimidin-2-yl]isoquinolin-1-one]",64.8 nM
2,"O=c1[nH]ncc(N2C[C@H](F)C[C@H]2CCCn2ccc3cc(-c4ncc(C(F)(F)F)cn4)c(F)cc3c2=O)c1C(F)(F)F [Example 140, 7-fluoro-2-[3-[(2R,4R)-4-fluoro-1-[6-oxo-5-(trifluoromethyl)-1H-pyridazin-4-yl]pyrrolidin-2-yl]propyl]-6-[5-(trifluoromethyl)pyrimidin-2-yl]isoquinolin-1-one]",585 nM
3,"O=c1[nH]ncc(N2C[C@@H](F)C[C@H]2CCCn2ccc3cc(-c4ncc(C(F)(F)F)cn4)c(F)cc3c2=O)c1C(F)(F)F [Example 141, 7-fluoro-2-[3-[(2R,4S)-4-fluoro-1-[6-oxo-5-(trifluoromethyl)-1H-pyridazin-4-yl]pyrrolidin-2-yl]propyl]-6-[5-(trifluoromethyl)pyrimidin-2-yl]isoquinolin-1-one]",16.2 nM
4,"O=c1[nH]ncc(N2CC3(CC3)C[C@H]2CCCn2ccc3cc(-c4ncc(C(F)(F)F)cn4)c(F)cc3c2=O)c1C(F)(F)F [Example 142, 7-fluoro-2-[3-[(6R)-5-[6-oxo-5-(trifluoromethyl)-1H-pyridazin-4-yl]-5-azaspiro[2.4]heptan-6-yl]propyl]-6-[5-(trifluoromethyl)pyrimidin-2-yl]isoquinolin-1-one]",38.6 nM
5,"Nc1nc(-c2cc3ccn(CCC[C@@H]4CC5(CC5)CN4c4cn[nH]c(=O)c4C(F)(F)F)c(=O)c3cc2F)ncc1C(F)F [Example 143, 6-[4-amino-5-(difluoromethyl)pyrimidin-2-yl]-7-fluoro-2-[3-[(6R)-5-[6-oxo-5-(trifluoromethyl)-1H-pyridazin-4-yl]-5-azaspiro[2.4]heptan-6-yl]propyl]isoquinolin-1-one]",26.5 nM
6,"Nc1nc(-c2cc3ccn(CCC[C@@H](Nc4cn[nH]c(=O)c4C(F)(F)F)C4CC4)c(=O)c3cc2F)ncc1C(F)(F)F [Example 144, 6-[4-amino-5-(trifluoromethyl)pyrimidin-2-yl]-2-[(4R)-4-cyclopropyl-4-[[6-oxo-5-(trifluoromethyl)-1H-pyridazin-4-yl]amino]butyl]-7-fluoro-isoquinolin-1-one]",3.55 nM
7,"N#Cc1cnc(-c2cc3ccn(CCC[C@@H](Nc4cn[nH]c(=O)c4C(F)(F)F)C4CC4)c(=O)c3cc2F)nc1N [Example 145, 4-amino-2-[2-[(4R)-4-cyclopropyl-4-[[6-oxo-5-(trifluoromethyl)-1H-pyridazin-4-yl]amino]butyl]-7-fluoro-1-oxoisoquinolin-6-yl]pyrimidine-5-carbonitrile]",14.1 nM
8,"COc1cnc(-c2cc3ccn(CCC[C@@H](Nc4cn[nH]c(=O)c4C(F)(F)F)C4CC4)c(=O)c3cc2F)nc1N [Example 146, 6-(4-amino-5-methoxypyrimidin-2-yl)-2-[(4R)-4-cyclopropyl-4-[[6-oxo-5-(trifluoromethyl)-1H-pyridazin-4-yl]amino]butyl]-7-fluoroisoquinolin-1-one]",14.5 nM
9,Nc1nc(-c2cc3ccn(CCC[C@@H](Nc4cn[nH]c(=O)c4C(F)(F)F)C4CC4)c(=O)c3cc2F)ncc1C(F)F [Example 147],39.1 nM
10,"O=c1[nH]ncc(N2CCC2CCCn2cnc3cc(-c4ncc(C(F)(F)F)cn4)c(F)cc3c2=O)c1C(F)(F)F (stereo not drawn) [Example 150, 6-fluoro-3-[3-[1-[6-oxo-5-(trifluoromethyl)-1H-pyridazin-4-yl]azetidin-2-yl]propyl]-7-[5-(trifluoromethyl)pyrimidin-2-yl]quinazolin-4-one]",19.1 nM
11,"COc1cnc(-c2cc3ccn(CCCC4CCN4c4cn[nH]c(=O)c4C(F)(F)F)c(=O)c3cc2F)nc1N (stereo not drawn) [Example 153, 6-(4-amino-5-methoxy-pyrimidin-2-yl)-7-fluoro-2-[3-[1-[6-oxo-5-(trifluoromethyl)-1H-pyridazin-4-yl]azetidin-2-yl]propyl]isoquinolin-1-one]",10.9 nM
12,"CC[C@@H](CCCn1cnc2cc(-c3ncc(Cl)cn3)c(F)cc2c1=O)Nc1cn[nH]c(=O)c1C(F)(F)F [Example 157, 7-(5-chloropyrimidin-2-yl)-6-fluoro-3-[(4S)-4-[[6-oxo-5-(trifluoromethyl)-1H-pyridazin-4-yl]amino]hexyl]quinazolin-4-one]",22.7 nM
13,"COc1cnc(-c2cc3ccn(CCC[C@H](C)Nc4cn[nH]c(=O)c4C(F)(F)F)c(=O)c3cc2F)nc1NCC(F)F [Example 158, 6-[4-(2,2-difluoroethylamino)-5-methoxy-pyrimidin-2-yl]-7-fluoro-2-[(4S)-4-[[6-oxo-5-(trifluoromethyl)-1H-pyridazin-4-yl]amino]pentyl]isoquinolin-1-one]",109 nM
14,"COc1cnc(-c2cc3ncn(CCC[C@H](C)Nc4cn[nH]c(=O)c4C(F)(F)F)c(=O)c3cc2F)nc1NCC(F)F [Example 159, 7-[4-(2,2-difluoroethylamino)-5-methoxy-pyrimidin-2-yl]-6-fluoro-3-[(4S)-4-[[6-oxo-5-(trifluoromethyl)-1H-pyridazin-4-yl]amino]pentyl]quinazolin-4-one]",283 nM
15,O=c1[nH]ncc(N[C@@H](CO)CCCn2ccc3cc(-c4ncc(C(F)F)cn4)c(F)cc3c2=O)c1C(F)(F)F [Example 165],159 nM
16,"Nc1nc(-c2cc3ccn(CCC[C@H](CO)Nc4cn[nH]c(=O)c4C(F)(F)F)c(=O)c3cc2F)ccc1C(F)(F)F [Example 167, 6-[6-amino-5-(trifluoromethyl)pyridin-2-yl]-7-fluoro-2-[(4R)-5-hydroxy-4-[[6-oxo-5-(trifluoromethyl)-1H-pyridazin-4-yl]amino]pentyl]isoquinolin-1-one]",103 nM
17,"C[C@@H](CCCn1ccc2cc(-n3cc(C(F)(F)F)cn3)ccc2c1=O)Nc1cn[nH]c(=O)c1C(F)(F)F [Example 173, (S)-2-(4-((6-oxo-5-(trifluoromethyl)-1,6-dihydropyridazin-4-yl)amino)pentyl)-6-(4-(trifluoromethyl)-1H-pyrazol-1-yl)isoquinolin-1(2H)-one]",270 nM

# The remaining lines, values ahead:
row,EC50,SMILES
1,219 nM,"N#CC[C@@H](CCCn1ccc2cc(-c3ncc(C(F)(F)F)cn3)c(F)cc2c1=O)Nc1cn[nH]c(=O)c1C(F)(F)F [Example 160, (3R)-6-[7-fluoro-1-oxo-6-[5-(trifluoromethyl)pyrimidin-2-yl]-2-isoquinolyl]-3-[[6-oxo-5-(trifluoromethyl)-1H-pyridazin-4-yl]amino]hexanenitrile]"
2,28.7 nM,"CC#C[C@@H](CCCn1ccc2cc(-c3ncc(C(F)(F)F)cn3)c(F)c(F)c2c1=O)Nc1cn[nH]c(=O)c1C(F)(F)F [Example 161, 7,8-difluoro-2-[(4R)-4-[[6-oxo-5-(trifluoromethyl)-1H-pyridazin-4-yl]amino]hept-5-ynyl]-6-[5-(trifluoromethyl)pyrimidin-2-yl]isoquinolin-1-one]"
3,662 nM,"N#C[C@@H](CCCn1ccc2cc(-c3ncc(C(F)(F)F)cn3)c(F)cc2c1=O)Nc1cn[nH]c(=O)c1C(F)(F)F [Example 162, (2R)-5-[7-fluoro-1-oxo-6-[5-(trifluoromethyl)pyrimidin-2-yl]-2-isoquinolyl]-2-[[6-oxo-5-(trifluoromethyl)-1H-pyridazin-4-yl]amino]pentanenitrile]"
4,219 nM,"O=c1[nH]ncc(N[C@@H](CO)CCCn2cnc3cc(-c4ncc(C(F)(F)F)cn4)c(F)cc3c2=O)c1C(F)(F)F [Example 164, 6-fluoro-3-[(4R)-5-hydroxy-4-[[6-oxo-5-(trifluoromethyl)-1H-pyridazin-4-yl]amino]pentyl]-7-[5-(trifluoromethyl)pyrimidin-2-yl]quinazolin-4-one]"
5,128 nM,"O=c1[nH]ncc(N[C@@H](CO)CCCn2ccc3cc(-c4ncc(Cl)cn4)c(F)cc3c2=O)c1C(F)(F)F [Example 166, 6-(5-chloropyrimidin-2-yl)-7-fluoro-2-[(4R)-5-hydroxy-4-[[6-oxo-5-(trifluoromethyl)-1H-pyridazin-4-yl]amino]pentyl]isoquinolin-1-one]"
6,61.9 nM,"Cc1nnc([C@@H](CCCn2ccc3cc(-c4ncc(C(F)(F)F)cn4)c(F)cc3c2=O)Nc2cn[nH]c(=O)c2C(F)(F)F)o1 [Example 169, 7-fluoro-2-[(4R)-4-(5-methyl-1,3,4-oxadiazol-2-yl)-4-[[6-oxo-5-(trifluoromethyl)-1H-pyridazin-4-yl]amino]butyl]-6-[5-(trifluoromethyl)pyrimidin-2-yl]isoquinolin-1-one]"
7,195 nM,"C#C[C@@H](CCCn1ccc2cc(-c3ncc(C(F)(F)F)cn3)c(F)cc2c1=O)Nc1cn[nH]c(=O)c1C(F)(F)F [Example 170, 7-fluoro-2-[(4R)-4-[[6-oxo-5-(trifluoromethyl)-1H-pyridazin-4-yl]amino]hex-5-ynyl]-6-[5-(trifluoromethyl)pyrimidin-2-yl]isoquinolin-1-one]"
8,257 nM,"C#C[C@H](CCCn1ccc2cc(-c3ncc(C(F)(F)F)cn3)c(F)cc2c1=O)Nc1cn[nH]c(=O)c1C(F)(F)F [Example 171, 7-fluoro-2-[(4S)-4-[[6-oxo-5-(trifluoromethyl)-1H-pyridazin-4-yl]amino]hex-5-ynyl]-6-[5-(trifluoromethyl)pyrimidin-2-yl]isoquinolin-1-one]"
9,1010 nM,"CN(CCCn1ccc2cc(-c3ncc(C(F)(F)F)cn3)c(F)cc2c1=O)Nc1cn[nH]c(=O)c1C(F)(F)F [Example 172, 7-fluoro-2-(3-(1-methyl-2-(6-oxo-5-(trifluoromethyl)-1,6-dihydropyridazin-4-yl)hydrazineyl)propyl)-6-(5-(trifluoromethyl)pyrimidin-2-yl)isoquinolin-1(2H)-one]"
